Test results from patent US7935819B2, “Cyclic urea derivatives, preparation thereof and pharmaceutical use thereof as kinase inhibitors” (Aventis Pharma S.A., priority 2006, dated 2011).
Where two headings read alike, the source gives them in different places.

Legend:
[1] = target: T1, IGF-1R (human cytoplasmic domain fused with GST) (Homo sapiens, UniProt P08069); experiment: Kinase IGF-1R test (Test A): inhibition of autophosphorylation of the enzyme, HTRF; format: biochemical; details: 120 μM ATP
T1 construct: The human cytoplasmic domain of IGF-1R was cloned by fusion with glutathione S-transferase (GST); made in house; host or cells: SF21 insect cells (baculovirus, pFastBac-GST)
T1 sequence (P08069 960-1367 limits assumed): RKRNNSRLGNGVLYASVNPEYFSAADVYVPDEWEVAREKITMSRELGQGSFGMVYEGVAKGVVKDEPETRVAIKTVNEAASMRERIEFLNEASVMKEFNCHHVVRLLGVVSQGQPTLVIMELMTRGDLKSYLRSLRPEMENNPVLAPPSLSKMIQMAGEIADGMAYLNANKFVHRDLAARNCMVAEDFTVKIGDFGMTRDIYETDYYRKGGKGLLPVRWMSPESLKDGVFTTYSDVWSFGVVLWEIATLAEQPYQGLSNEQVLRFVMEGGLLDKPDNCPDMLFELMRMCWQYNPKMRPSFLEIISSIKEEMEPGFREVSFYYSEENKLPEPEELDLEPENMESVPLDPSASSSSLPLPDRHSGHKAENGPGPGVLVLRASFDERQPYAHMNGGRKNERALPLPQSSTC
Description: A) Experimental Protocol for the Kinase IGF-1R Test:
The inhibitory activity of the compounds on IGF1R is determined by measuring the inhibition of autophosphorylation of the enzyme using a time-resolved fluorescence test (HTRF). The human cytoplasmic domain of IGF-1R was cloned by fusion with glutathione S-transferase (GST) in the baculovirus expression vector pFastBac-GST. The protein is expressed in the SF21 cells and purified to about 80% homogeneity. For the enzymatic test, the test compound at 10 mM dissolved in DMSO is diluted in 1/3 steps in a 50 mM Hepes, pH 7.5, 5 mM MnCl2, 50 mM NaCl, 3% Glycerol, 0.025% Tween 20 buffer. To measure the inhibition, the successive dilutions of the compound are preincubated for 30 minutes and 90 minutes in the presence of 5 nM of enzyme, the final DMSO concentration not exceeding 1%. The enzymatic reaction is initiated to have a final ATP concentration of 120 μM, and is stopped after 5 minutes by addition of 100 mM Hepes, pH 7.0 buffer containing 0.4 M of potassium fluoride, 133 mM EDTA, 0.1% BSA, the XL665-labelled antibody anti-GST and the anti-phosphotyrosine antibody conjugated to europium cryptate Eu—K (Cis-Bio Int.). The characteristics of the two fluorophores, XL-665 and Eu—K, are available in G. Mathis et al., Anticancer Research, 1997, 17, pages 3011-3014. The energy transfer between the excited europium cryptate to the acceptor XL665 is proportional to the degree of autophosphorylation of IGF-1R. The specific long-lasting signal of XL-665 is measured in a GENios Pro TECAN plate counter. The inhibition of autophosphorylation of IGF-1R at time 30 minutes and 90 minutes with the test compounds of the invention is calculated relative to a 1% in DMSO control, whose activity is measured in the absence of compound. The curve representing the percentage of inhibition as a function of the log of the concentration is established to determine the concentration corresponding to 50% inhibition (IC50).

[2] = target: MEF-IGF1R cells (stable clone transfected with hIGF-1R) (Homo sapiens, UniProt P08069); experiment: Proliferation/viability of MEF-IGF1R (Test C), [14C]thymidine incorporation; format: cell-based; details: rhIGF1 100 ng/mL, 72 hours, read-out: Test C IC50
Sequence of MEF-IGF1R cells (stable clone transfected with hIGF-1R) (P08069 whole entry, change not shown): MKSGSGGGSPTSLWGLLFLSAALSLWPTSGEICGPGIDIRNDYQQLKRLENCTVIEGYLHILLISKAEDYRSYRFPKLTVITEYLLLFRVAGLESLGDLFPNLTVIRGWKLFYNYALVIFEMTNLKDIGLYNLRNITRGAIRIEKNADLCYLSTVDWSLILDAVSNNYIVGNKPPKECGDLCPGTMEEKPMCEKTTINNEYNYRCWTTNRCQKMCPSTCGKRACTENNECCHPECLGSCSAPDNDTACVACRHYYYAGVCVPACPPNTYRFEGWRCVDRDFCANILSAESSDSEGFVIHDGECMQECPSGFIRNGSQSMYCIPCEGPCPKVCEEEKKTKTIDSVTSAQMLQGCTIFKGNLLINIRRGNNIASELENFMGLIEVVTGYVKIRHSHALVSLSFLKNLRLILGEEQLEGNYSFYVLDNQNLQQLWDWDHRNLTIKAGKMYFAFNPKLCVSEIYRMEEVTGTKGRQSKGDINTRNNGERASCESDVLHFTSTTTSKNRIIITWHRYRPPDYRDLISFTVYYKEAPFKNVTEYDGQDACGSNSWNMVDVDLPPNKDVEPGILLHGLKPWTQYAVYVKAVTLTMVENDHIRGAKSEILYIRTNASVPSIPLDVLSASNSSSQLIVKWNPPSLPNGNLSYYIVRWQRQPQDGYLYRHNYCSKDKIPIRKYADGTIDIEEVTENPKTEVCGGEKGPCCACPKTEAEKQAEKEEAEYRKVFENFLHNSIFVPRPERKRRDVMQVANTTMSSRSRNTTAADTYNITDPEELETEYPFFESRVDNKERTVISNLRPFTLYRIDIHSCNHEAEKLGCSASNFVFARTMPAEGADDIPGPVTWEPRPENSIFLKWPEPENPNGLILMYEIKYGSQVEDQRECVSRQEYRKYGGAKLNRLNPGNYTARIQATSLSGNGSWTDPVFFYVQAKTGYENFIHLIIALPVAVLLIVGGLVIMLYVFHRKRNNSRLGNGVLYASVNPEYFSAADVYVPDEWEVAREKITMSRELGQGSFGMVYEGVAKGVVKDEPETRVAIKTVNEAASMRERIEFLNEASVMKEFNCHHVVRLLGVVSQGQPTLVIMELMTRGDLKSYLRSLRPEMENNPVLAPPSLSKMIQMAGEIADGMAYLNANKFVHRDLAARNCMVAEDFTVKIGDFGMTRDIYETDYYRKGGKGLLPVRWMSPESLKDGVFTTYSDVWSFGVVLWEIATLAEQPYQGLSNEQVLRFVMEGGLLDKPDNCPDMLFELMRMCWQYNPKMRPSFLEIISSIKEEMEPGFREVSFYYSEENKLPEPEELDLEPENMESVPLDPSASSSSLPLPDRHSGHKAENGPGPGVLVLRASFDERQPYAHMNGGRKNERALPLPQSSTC
Description: C) Measurement of the Proliferation/Viability of MEF-IGF1R
Cell culture: the MEF-IGF1R cells (stable clone of cells transfected with the receptor hIGF-1R) are cultured at 37° C. under 5% CO2 in EMEM medium containing 10% FCS.
Test procedure: the cells are seeded at 5000 cells per well in 96-well Cytostar plates (Amersham) with 0.2 mL of EMEM culture medium at 37° C. for 18 hours. The cells are then washed twice with EMEM medium and left to culture without serum for 24 hours. The compounds are then added at various concentrations in the presence of rhIGF1 (100 ng/mL) and 0.1 μCi of Thymidine [^14C] (specific activity ˜50 mCi/mmol) to give 0.2 mL of volume per well. After incubation for 72 hours in the presence of the compound, at 37° C. under 5% CO2, the incorporation of Thymidine [^14C] is measured by counting the radioactivity on a Microbeta trilux counter (Perkin-Elmer). The IC50 is determined from 10 increasing concentrations of the compound.
(§1) (i) The tests are performed in duplicate and the mean of the two tests is calculated.
(§2) (ii) The value of the signal of the maximum response is calculated from the positive control: cells stimulated with IGF1 without compound.
(§3) (iii) Value of the signal of the minimum response is calculated from the negative control: cells not stimulated with IGF1 without compound.
(§4) (iv) By using these values as maximum (100%) and minimum (0%), respectively, the data were normalized so as to give a percentage of the maximum response.
(§5) (v) A curve of dose response is plotted and the IC50 (the concentration of which the compound induces a 50% decrease in the signal) of the compound is calculated by non-linear regression analysis.

IGF1R in MCF-7 cells = target: T2, IGF1R in MCF-7 cells (Homo sapiens, UniProt P08069); experiment: Autophosphorylation of IGF-1R in MCF7 cells after stimulation with IGF-1 (Test B), ELISA; format: cell-based; details: compound added one hour before IGF1 stimulation (10 minutes)
T2 construct: endogenous in cells; host or cells: MCF-7 cells
T2 sequence (P08069 31-1367): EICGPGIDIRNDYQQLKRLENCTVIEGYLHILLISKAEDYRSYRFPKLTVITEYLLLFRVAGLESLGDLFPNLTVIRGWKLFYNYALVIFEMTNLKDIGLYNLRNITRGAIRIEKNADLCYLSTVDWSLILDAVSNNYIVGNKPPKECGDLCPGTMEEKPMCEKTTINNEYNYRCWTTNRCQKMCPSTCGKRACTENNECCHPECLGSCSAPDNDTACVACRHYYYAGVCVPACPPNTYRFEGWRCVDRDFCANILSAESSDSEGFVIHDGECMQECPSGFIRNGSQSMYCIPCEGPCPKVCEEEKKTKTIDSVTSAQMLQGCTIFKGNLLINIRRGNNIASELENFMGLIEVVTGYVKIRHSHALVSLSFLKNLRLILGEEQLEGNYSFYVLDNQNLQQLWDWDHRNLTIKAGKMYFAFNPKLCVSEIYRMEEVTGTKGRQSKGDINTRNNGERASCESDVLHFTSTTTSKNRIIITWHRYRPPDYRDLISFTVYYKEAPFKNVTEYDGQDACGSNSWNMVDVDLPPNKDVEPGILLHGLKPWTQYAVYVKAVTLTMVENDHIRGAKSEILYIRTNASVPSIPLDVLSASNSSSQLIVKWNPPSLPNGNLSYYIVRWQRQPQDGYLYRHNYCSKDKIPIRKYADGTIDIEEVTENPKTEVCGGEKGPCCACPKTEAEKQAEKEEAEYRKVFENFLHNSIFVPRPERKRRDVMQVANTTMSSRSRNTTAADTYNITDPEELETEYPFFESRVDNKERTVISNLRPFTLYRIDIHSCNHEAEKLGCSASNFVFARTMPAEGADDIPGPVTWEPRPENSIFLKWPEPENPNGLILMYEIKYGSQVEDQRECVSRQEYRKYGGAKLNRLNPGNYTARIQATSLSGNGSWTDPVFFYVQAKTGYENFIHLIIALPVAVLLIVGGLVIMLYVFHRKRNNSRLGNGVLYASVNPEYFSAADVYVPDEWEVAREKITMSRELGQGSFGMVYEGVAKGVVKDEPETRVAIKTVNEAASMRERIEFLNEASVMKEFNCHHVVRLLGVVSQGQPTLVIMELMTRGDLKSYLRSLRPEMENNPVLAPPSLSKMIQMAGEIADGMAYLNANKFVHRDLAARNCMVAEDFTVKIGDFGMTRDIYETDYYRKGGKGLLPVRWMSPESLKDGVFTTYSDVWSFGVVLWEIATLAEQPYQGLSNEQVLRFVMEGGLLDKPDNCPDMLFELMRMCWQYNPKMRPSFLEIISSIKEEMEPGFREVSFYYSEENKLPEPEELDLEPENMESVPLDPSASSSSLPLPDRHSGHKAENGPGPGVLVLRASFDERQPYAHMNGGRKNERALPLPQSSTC
Description: B) Measurement of the Autophosphorylation of IGF-1r in MCF7 Cells after Stimulation with IGF-1
Cell Culturing and Execution of the Test:
The autophosphorylation of IGF1R in the IGF1-induced cells is evaluated by means of an ELISA technique (Enzyme Linked ImmunoSorbent Assay). The MCF-7 are seeded at 60 000 cells per well in 6-well plates and incubated at 37° C., 5% CO2 in medium containing 10% serum. After one night in 10% serum, the cells are deprived of serum for 24 hours. The compounds are added to the medium one hour before stimulation with IGF1. After 10 minutes of stimulation with IGF1, the cells are lysed with a buffer (Hepes 50 mM pH 7.6, Triton X100 1%, orthovanadate 2 mM, protease inhibitor cocktail). The cell lysates are incubated on a 96-well plate precoated with an anti-IGF1R antibody, followed by incubation with an anti-phosphotyrosine antibody coupled to the enzyme peroxidase. The level of peroxidase activity (measured by OD with a luminescent substrate) reflects the phosphorylation status of the receptor.
as §1, §2, §3, §4, §5

[3] = preincubation with enzyme 30 minutes, read-out: Test A 30′ IC50
[4] = preincubation with enzyme 90 minutes, read-out: Test A 90′ IC50

**Q.** CC(C)(C)c1ccc(N2C(=O)N(Cc3ccnc(Nc4cccc(CN5CCCC5)c4)c3)C(C)(C)C2=O)cc1 [Example 31G, 3-(4-tert-butylphenyl)-5,5-dimethyl-1-[(2-{[3-(pyrrolidin-1-ylmethyl)phenyl]amino}pyridin-4-yl)methyl]imidazolidine-2,4-dione] was tested. Which IC50 [1, 3] did it give?
**A.** The IC50 was 10 to 100 nM.

**Q.** What about the IC50 [1, 4] of the same molecule?
**A.** Its IC50 is < 10 nM.

**Q.** What about the GI50 [2] of the same molecule?
**A.** Its GI50 is < 10 nM.

**Q.** What about the IC50 (IGF1R in MCF-7 cells) of the same molecule?
**A.** The IC50 was 10 to 100 nM.

**Q.** With CC(C)(C)c1ccc(N2C(=O)N(Cc3ccnc(Nc4ccc(CN5CCCC5)cc4)c3)C(C)(C)C2=O)cc1 [Example 31F, 3-(4-tert-butylphenyl)-5,5-dimethyl-1-[(2-{[4-(pyrrolidin-1-ylmethyl)phenyl]amino}pyridin-4-yl)methyl]imidazolidine-2,4-dione] as the molecule, how does the IC50 [1, 3] read?
**A.** The IC50 was 10 to 100 nM.

**Q.** What about the IC50 [1, 4] of the same molecule?
**A.** Its IC50 is < 10 nM.

**Q.** What about the GI50 [2] of the same molecule?
**A.** Its GI50 is < 10 nM.

**Q.** And the IC50 (IGF1R in MCF-7 cells)?
**A.** Its IC50 is 10 to 100 nM.

**Q.** For CC(C)NCC(=O)N1CC(C)(C)c2ccc(N3C(=O)N(Cc4ccnc(Nc5cccnc5)c4)C(C)(C)C3=O)cc21 [Example 31D, 3-[1-(N-isopropylglycyl)-3,3-dimethyl-2,3-dihydro-1H-indol-6-yl]-5,5-dimethyl-1-{[2-(pyridin-3-ylamino)pyridin-4-yl]methyl}imidazolidine-2,4-dione], which IC50 [1, 3] is on record?
**A.** Its IC50 is > 100 nM.

**Q.** And the IC50 [1, 4]?
**A.** The IC50 was 10 to 100 nM.

**Q.** And the GI50 [2]?
**A.** Its GI50 is 10 to 100 nM.

**Q.** And the IC50 (IGF1R in MCF-7 cells)?
**A.** The IC50 was 10 to 100 nM.

**Q.** For CC(C)(C)c1ccc(N2C(=O)N(Cc3ccnc(NC(=O)Nc4cccnc4)c3)C(C)(C)C2=O)cc1 [Example 31O, 1-(4-{[3-(4-tert-butylphenyl)-5,5-dimethyl-2,4-dioxoimidazolidin-1-yl]methyl}pyridin-2-yl)-3-pyridin-3-ylurea], which IC50 [1, 3] is on record?
**A.** Its IC50 is > 100 nM.

**Q.** And the IC50 [1, 4]?
**A.** The IC50 was > 100 nM.

**Q.** What about the GI50 [2] of the same molecule?
**A.** The GI50 was 10 to 100 nM.

**Q.** And the IC50 (IGF1R in MCF-7 cells)?
**A.** The IC50 was 10 to 100 nM.

**Q.** With CN(C)CC(=O)N1CC(C)(C)c2ccc(N3C(=O)N(Cc4ccnc(Nc5cccnc5)c4)C(C)(C)C3=O)cc21 [Example 31B, 3-[1-(N,N-dimethylglycyl)-3,3-dimethyl-2,3-dihydro-1H-indol-6-yl]-5,5-dimethyl-1-{[2-(pyridin-3-ylamino)pyridin-4-yl]methyl}imidazolidine-2,4-dione] as the molecule, how does the IC50 [1, 3] read?
**A.** Its IC50 is > 100 nM.

**Q.** And the IC50 [1, 4]?
**A.** Its IC50 is 10 to 100 nM.

**Q.** What about the GI50 [2] of the same molecule?
**A.** Its GI50 is < 10 nM.

**Q.** What about the IC50 (IGF1R in MCF-7 cells) of the same molecule?
**A.** The IC50 was 10 to 100 nM.

**Q.** Which IC50 [1, 3] does the source give for CCCCNC(=O)Nc1cc(CN2C(=O)N(c3ccc(C(C)(C)C)cc3)C(=O)C2(C)C)ccn1 [Example 28, 1-butyl-3-(4-{[3-(4-tert-butylphenyl)-5,5-dimethyl-2,4-dioxoimidazolidin-1-yl]methyl}pyridin-2-yl)urea] here?
**A.** Its IC50 is 10 to 100 nM.

**Q.** And the IC50 [1, 4]?
**A.** Its IC50 is 10 to 100 nM.

**Q.** What about the GI50 [2] of the same molecule?
**A.** The GI50 was > 100 nM.

**Q.** What about the IC50 (IGF1R in MCF-7 cells) of the same molecule?
**A.** Its IC50 is 10 to 100 nM.

**Q.** With COC(=O)Nc1cc(CN2C(=O)N(c3ccc(C(C)(C)C)cc3)C(=O)C2(C)C)ccn1 [Example 31Q, methyl (4-{[3-(4-tert-butylphenyl)-5,5-dimethyl-2,4-dioxoimidazolidin-1-yl]methyl}pyridin-2-yl)carbamate] as the molecule, how does the IC50 [1, 3] read?
**A.** The IC50 was 10 to 100 nM.

**Q.** What about the IC50 [1, 4] of the same molecule?
**A.** Its IC50 is < 10 nM.

**Q.** And the GI50 [2]?
**A.** The GI50 was 10 to 100 nM.

**Q.** What about the IC50 (IGF1R in MCF-7 cells) of the same molecule?
**A.** The IC50 was < 10 nM.

**Q.** Which results are given for CC(C)(C)c1ccc(N2C(=O)N(Cc3ccnc(Nc4ccc(CCN5CCCC5)cc4)c3)C(C)(C)C2=O)cc1 [Example 31U, 3-(4-tert-butylphenyl)-5,5-dimethyl-1-[(2-{[4-(2-pyrrolidin-1-ylethyl)phenyl]amino}pyridin-4-yl)methyl]imidazolidine-2,4-dione]?
**A.** IC50 [1, 3]: 10 to 100 nM; IC50 [1, 4]: < 10 nM; GI50 [2]: < 10 nM; IC50 (IGF1R in MCF-7 cells): < 10 nM

**Q.** Which results are given for CC(C)(C)c1ccc(N2C(=O)N(Cc3ccnc(NC(N)=O)c3)C(C)(C)C2=O)cc1 [Example 31P, 1-(4-{[3-(4-tert-butylphenyl)-5,5-dimethyl-2,4-dioxoimidazolidin-1-yl]methyl}pyridin-2-yl)urea]?
**A.** IC50 [1, 3]: 10 to 100 nM; IC50 [1, 4]: < 10 nM; GI50 [2]: < 10 nM; IC50 (IGF1R in MCF-7 cells): 10 to 100 nM

**Q.** Which results are given for CC(C)NCC(=O)N1CC(C)(C)c2ccc(N3C(=O)N(Cc4ccnc(NC(=O)N(C)C)c4)C(C)(C)C3=O)cc21 [Example 31E, 3-[4-({3-[1-(N-isopropylglycyl)-3,3-dimethyl-2,3-dihydro-1H-indol-6-yl]-5,5-dimethyl-2,4-dioxoimidazolidin-1-yl}methyl)pyridin-2-yl]-1,1-dimethylurea]?
**A.** IC50 [1, 3]: > 100 nM; IC50 [1, 4]: > 100 nM; GI50 [2]: 10 to 100 nM; IC50 (IGF1R in MCF-7 cells): 10 to 100 nM
